Experiments:
Assay type in all cases: in vivo
Parameters in all cases: key: 0 is no effect; 10 is complete control
[1] = test system: bedstraw (Galium aparine); assay: Test B pre-/postemergence; conditions: Postemergence
Method in brief: (§1)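 Seeds were planted and sprayed preemergence, while plants at 2 to 18 cm (1- to 4-leaf stage) were sprayed postemergence at the same time, with test chemical in a non-phytotoxic solvent mixture containing surfactant. After twelve to sixteen days in a greenhouse, injury was rated visually against untreated controls on a 0–10 scale.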

[2] = test system: blackgrass (Alopecurus myosuroides); assay: Test B pre-/postemergence
Method in brief: as §1

[3] = test system: broadleaf signalgrass (Brachiaria decumbens); assay: Test B pre-/postemergence
Method in brief: as §1

[4] = test system: cocklebur (Xanthium strumarium); assay: Test B pre-/postemergence
Method in brief: as §1

corn (Zea mays) = assay: Test B pre-/postemergence
Method in brief: as §1

[5] = test system: crabgrass (Digitaria sanguinalis); assay: Test B pre-/postemergence
Method in brief: as §1

[6] = test system: giant foxtail (Setaria faberii); assay: Test B pre-/postemergence
Method in brief: as §1

[7] = test system: momingglory (Ipomoea hederacea); assay: Test B pre-/postemergence
Method in brief: as §1

[8] = test system: pigweed (Amaranthus retroflexus); assay: Test B pre-/postemergence
Method in brief: as §1

[9] = test system: purple nutsedge (Cyperus rotundus); assay: Test B pre-/postemergence; conditions: Rate 62 g/ha
Method in brief: as §1

rape (Brassica napus) = assay: Test B pre-/postemergence
Method in brief: as §1

soybean (Glycine max) = assay: Test B pre-/postemergence
Method in brief: as §1

[10] = test system: sugar beet (Beta vulgaris); assay: Test B pre-/postemergence
Method in brief: as §1

[11] = test system: velvetleaf (Abutilon theophrasti); assay: Test B pre-/postemergence
Method in brief: as §1

[12] = test system: wheat (Triticum aestivum); assay: Test B pre-/postemergence
Method in brief: as §1

wild oat (Avena fatua) = assay: Test B pre-/postemergence
Method in brief: as §1

[13] = test system: bamyardgrass (Echinochloa crus-galli); assay: Test B flood test
Method in brief: (§2)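 Plants were grown to the 2-leaf stage before treatment with test chemical, then held in a greenhouse for twelve to sixteen days. Injury was visually rated against untreated controls on a 0–10 scale, where 0 is no effect and 10 is complete control.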

[14] = test system: duck salad (Heteranthera limosa); assay: Test B flood test
Method in brief: as §2

rice (Oryza sativa) = assay: Test B flood test
Method in brief: as §2

[15] = test system: smallflower flatsedge (Cyperus difformis); assay: Test B flood test
Method in brief: as §2

[16] = Preemergence, Rate 62 g/ha, scale of 0 to 10
[17] = Rate 62 g/ha, Postemergence (flood test)
[18] = Rate 125 g/ha, Postemergence section (flood test species)
[19] = Rate 250 g/ha, Postemergence (flood test species)

O=C(c1cccc(C(F)(F)F)c1)c1ccnc(-c2ccc(C(F)(F)F)cc2)n1 [Compound 77]
Bedstraw plant response rating ([1]; Rate 62 g/ha): 1 | Bedstraw plant response rating ([1]; Rate 125 g/ha): 1 | Plant response rating, Bedstraw ([1]; Rate 250 g/ha): 4 | Plant response rating, Blackgrass [2, 16]: 0 | Blackgrass plant response rating ([2]; Rate 62 g/ha, Postemergence): 0 | Blackgrass plant response rating ([2]; Rate 125 g/ha, Postemergence): 0 | Plant response rating, Blackgrass ([2]; Rate 125 g/ha, Preemergence): 0 | Plant response rating, Blackgrass ([2]; Rate 250 g/ha, Postemergence): 2 | Plant response rating, Blackgrass ([2]; Rate 250 g/ha, Preemergence): 0 | B. signalgrass plant response rating ([3]; Rate 62 g/ha, Postemergence): 0 | B. signalgrass plant response rating ([3]; Rate 62 g/ha, Preemergence): 0 | B. signalgrass plant response rating ([3]; Rate 125 g/ha, Postemergence): 0 | Plant response rating, B. signalgrass ([3]; Rate 125 g/ha, Preemergence): 0 | Plant response rating, B. signalgrass ([3]; Rate 250 g/ha, Postemergence): 1 | Plant response rating, B. signalgrass ([3]; Rate 250 g/ha, Preemergence): 0 | Plant response rating, Cocklebur [4, 16]: 0 | Cocklebur plant response rating ([4]; Rate 62 g/ha, Postemergence): 1 | Cocklebur plant response rating ([4]; Rate 125 g/ha, Postemergence): 3 | Plant response rating, Cocklebur ([4]; Rate 125 g/ha, Preemergence): 0 | Plant response rating, Cocklebur ([4]; Rate 250 g/ha, Postemergence): 3 | Plant response rating, Cocklebur ([4]; Rate 250 g/ha, Preemergence): 0 | Plant response rating, Corn (corn (Zea mays); [16]): 0 | Corn plant response rating (corn (Zea mays); Rate 62 g/ha, Postemergence): 1 | Corn plant response rating (corn (Zea mays); Rate 125 g/ha, Postemergence): 1 | Plant response rating, Corn (corn (Zea mays); Rate 125 g/ha, Preemergence): 0 | Plant response rating, Corn (corn (Zea mays); Rate 250 g/ha, Postemergence): 1 | Plant response rating, Corn (corn (Zea mays); Rate 250 g/ha, Preemergence): 0 | Plant response rating, Crabgrass [5, 16]: 0 | Crabgrass plant response rating ([5]; Rate 62 g/ha, Postemergence): 0 | Crabgrass plant response rating ([5]; Rate 125 g/ha, Postemergence): 2 | Plant response rating, Crabgrass ([5]; Rate 125 g/ha, Preemergence): 0 | Plant response rating, Crabgrass ([5]; Rate 250 g/ha, Postemergence): 2 | Plant response rating, Crabgrass ([5]; Rate 250 g/ha, Preemergence): 1 | Plant response rating, Giant foxtail [6, 16]: 0 | Giant foxtail plant response rating ([6]; Rate 62 g/ha, Postemergence): 0 | Giant foxtail plant response rating ([6]; Rate 125 g/ha, Postemergence): 1 | Plant response rating, Giant foxtail ([6]; Rate 125 g/ha, Preemergence): 0 | Plant response rating, Giant foxtail ([6]; Rate 250 g/ha, Postemergence): 1 | Plant response rating, Giant foxtail ([6]; Rate 250 g/ha, Preemergence): 1 | Plant response rating, Morningglory [7, 16]: 0 | Morningglory plant response rating ([7]; Rate 62 g/ha, Postemergence): 2 | Morningglory plant response rating ([7]; Rate 125 g/ha, Postemergence): 4 | Plant response rating, Morningglory ([7]; Rate 125 g/ha, Preemergence): 0 | Plant response rating, Morningglory ([7]; Rate 250 g/ha, Postemergence): 4 | Plant response rating, Morningglory ([7]; Rate 250 g/ha, Preemergence): 1 | Plant response rating, Redroot pigweed [8, 16]: 0 | Redroot pigweed plant response rating ([8]; Rate 62 g/ha, Postemergence): 2 | Redroot pigweed plant response rating ([8]; Rate 125 g/ha, Postemergence): 2 | Plant response rating, Redroot pigweed ([8]; Rate 125 g/ha, Preemergence): 0 | Plant response rating, Redroot pigweed ([8]; Rate 250 g/ha, Postemergence): 3 | Plant response rating, Redroot pigweed ([8]; Rate 250 g/ha, Preemergence): 0 | Plant response rating, Nutsedge ([9]; Preemergence, scale of 0 to 10): 0 | Nutsedge plant response rating ([9]; Postemergence): 0 | Plant response rating, Rape (rape (Brassica napus); [16]): 0 | Rape plant response rating (rape (Brassica napus); Rate 62 g/ha, Postemergence): 1 | Rape plant response rating (rape (Brassica napus); Rate 125 g/ha, Postemergence): 1 | Plant response rating, Rape (rape (Brassica napus); Rate 125 g/ha, Preemergence): 0 | Plant response rating, Rape (rape (Brassica napus); Rate 250 g/ha, Postemergence): 2 | Plant response rating, Rape (rape (Brassica napus); Rate 250 g/ha, Preemergence): 0 | Plant response rating, Soybean (soybean (Glycine max); [16]): 0 | Soybean plant response rating (soybean (Glycine max); Rate 62 g/ha, Postemergence): 0 | Soybean plant response rating (soybean (Glycine max); Rate 125 g/ha, Postemergence): 1 | Plant response rating, Soybean (soybean (Glycine max); Rate 125 g/ha, Preemergence): 0 | Plant response rating, Soybean (soybean (Glycine max); Rate 250 g/ha, Postemergence): 1 | Plant response rating, Soybean (soybean (Glycine max); Rate 250 g/ha, Preemergence): 0 | Plant response rating, Sugarbeets [10, 16]: 0 | Sugarbeets plant response rating ([10]; Rate 62 g/ha, Postemergence): 1 | Sugarbeets plant response rating ([10]; Rate 125 g/ha, Postemergence): 1 | Plant response rating, Sugarbeets ([10]; Rate 125 g/ha, Preemergence): 0 | Plant response rating, Sugarbeets ([10]; Rate 250 g/ha, Postemergence): 3 | Plant response rating, Sugarbeets ([10]; Rate 250 g/ha, Preemergence): 0 | Plant response rating, Velvetleaf [11, 16]: 0 | Velvetleaf plant response rating ([11]; Rate 62 g/ha, Postemergence): 1 | Velvetleaf plant response rating ([11]; Rate 125 g/ha, Postemergence): 1 | Plant response rating, Velvetleaf ([11]; Rate 125 g/ha, Preemergence): 0 | Plant response rating, Velvetleaf ([11]; Rate 250 g/ha, Postemergence): 1 | Plant response rating, Velvetleaf ([11]; Rate 250 g/ha, Preemergence): 3 | Plant response rating, Wheat [12, 16]: 0 | Wheat plant response rating ([12]; Rate 62 g/ha, Postemergence): 0 | Wheat plant response rating ([12]; Rate 125 g/ha, Postemergence): 0 | Plant response rating, Wheat ([12]; Rate 125 g/ha, Preemergence): 0 | Plant response rating, Wheat ([12]; Rate 250 g/ha, Postemergence): 0 | Plant response rating, Wheat ([12]; Rate 250 g/ha, Preemergence): 0 | Plant response rating, Wild oats (wild oat (Avena fatua); [16]): 0 | Wild oats plant response rating (wild oat (Avena fatua); Rate 62 g/ha, Postemergence): 0 | Wild oats plant response rating (wild oat (Avena fatua); Rate 125 g/ha, Postemergence): 0 | Plant response rating, Wild oats (wild oat (Avena fatua); Rate 125 g/ha, Preemergence): 0 | Plant response rating, Wild oats (wild oat (Avena fatua); Rate 250 g/ha, Postemergence): 1 | Plant response rating, Wild oats (wild oat (Avena fatua); Rate 250 g/ha, Preemergence): 0 | Barnyardgrass plant response rating [13, 17]: 0 | Barnyardgrass plant response rating [13, 18]: 0 | Plant response rating, Barnyardgrass [13, 19]: 0 | Ducksalad plant response rating [14, 17]: 0 | Ducksalad plant response rating [14, 18]: 0 | Plant response rating, Ducksalad [14, 19]: 0 | Rice plant response rating (rice (Oryza sativa); [17]): 0 | Rice plant response rating (rice (Oryza sativa); [18]): 0 | Plant response rating, Rice (rice (Oryza sativa); [19]): 0 | S. Flatsedge plant response rating [15, 17]: 0 | S. Flatsedge plant response rating [15, 18]: 0 | Plant response rating, S. Flatsedge [15, 19]: 0
